# Paper PMC11217295, “The immune response to RNA suppresses nucleic acid synthesis by limiting ribose 5-phosphate” (The EMBO Journal, 2024)
# Biological target: Ribose 5-Phosphate Isomerase A (RPIA) (Homo sapiens, UniProt P49247)
# Test: continuous spectrophotometric isomerase assay with recombinant RPIA
# Type: biochemical
# Design: recombinant Streptavidin-tagged human RPIA expressed in E. coli
# Source text: continuous spectrophotometric isomerase assay with recombinant RPIA on Ribose 5-Phosphate Isomerase A (RPIA) | validated its activity against the human isomerase in a continuous spectrophotometric assay.
# Ribose 5-Phosphate Isomerase A (RPIA), sequence (P49247 whole entry): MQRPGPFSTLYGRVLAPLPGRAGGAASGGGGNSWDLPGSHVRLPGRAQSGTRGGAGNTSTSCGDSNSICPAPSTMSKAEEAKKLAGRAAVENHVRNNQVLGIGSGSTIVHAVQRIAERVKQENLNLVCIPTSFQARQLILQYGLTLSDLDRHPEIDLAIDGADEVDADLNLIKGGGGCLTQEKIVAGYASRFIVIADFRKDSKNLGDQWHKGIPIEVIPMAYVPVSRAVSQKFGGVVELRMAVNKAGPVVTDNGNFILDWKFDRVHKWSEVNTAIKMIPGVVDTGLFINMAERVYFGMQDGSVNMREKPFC
compound,measurement,value
O=C(NO)[C@H](O)[C@H](O)COP(=O)(O)O [JNB-hu20-057-2A],continuous spectrophotometric isomerase assay with recombinant RPIA,validated its activity against the human isomerase in a continuous spectrophotometric assay. This shows the inhibitor suppresses the activity
